US20090221523A1 (priority 2005, published 2009)
≈ marks a conversion by molar mass, not a printed value. Where two headings read alike, the source gives them in different places. Marks after values point to notes of the source that are not given here.

Columns and labels:
HSV-1 strain F = experiment: microbe, parasite or virus in culture; format: cell-based, herpes simplex virus; conditions: Human alphaherpesvirus 1, HFF
HSV-1 TK− strain DM2.1 = experiment: microbe, parasite or virus in culture; format: cell-based, herpes simplex virus; conditions: Human alphaherpesvirus 1, HFF
[1] = test system: CV strain delta crmA (TK+); experiment: microbe, parasite or virus in culture; format: cell-based; conditions: Cowpox virus, Vero, read-out: CV delta crmA EC50 (TK+)
[2] = test system: CV strain TK:GFP lacZ (TK−); experiment: microbe, parasite or virus in culture; format: cell-based; conditions: Cowpox virus, Vero, read-out: CV TK:GFP lacZ EC50 (TK−)
HSV-1 strain E377 = test system: HSV-1 strain E377; set-up: species or system BALB/c mice; conditions: mouse, in vivo
in vitro = conditions: human
[3] = test system: vaccinia virus (Copenhagen Strain); experiment: microbe, parasite or virus in culture; format: cell-based
[4] = test system: cowpox virus (Brighton strain); experiment: microbe, parasite or virus in culture; format: cell-based; conditions: HFF, read-out: CV (Brighton) EC50
HFF cells [5] = experiment: cells; format: cell-based; conditions: Homo sapiens, 72 h, read-out: IC50, 50% inhibition of cell proliferation
vaccinia IHD strain = test system: vaccinia IHD strain; set-up: species or system BALB/c mice; conditions: mouse, in vivo
cowpox Brighton Strain [6] = test system: cowpox Brighton Strain; set-up: species or system BALB/c mice; conditions: mouse, in vivo
cowpox Brighton Strain [7] = test system: cowpox Brighton Strain; set-up: species or system BALB/c mice; conditions: mouse, in vivo; remark: listed apart in the source
vaccinia WR strain = test system: vaccinia WR strain; set-up: species or system BALB/c mice; conditions: mouse, in vivo
vaccinia (WR strain) = test system: vaccinia (WR strain); set-up: species or system mice; Mean Lung Virus Titer: unit not given here; conditions: mouse, in vivo
vaccinia (HID strain) = test system: vaccinia (HID strain); set-up: species or system mice; Mean Lung Virus Titer: unit not given here; conditions: mouse, in vivo
ΔcrmA (TK+) CV strain = experiment: microbe, parasite or virus in culture; format: cell-based; conditions: Cowpox virus, HFF, read-out: EC50 CV (Δcrm lacZ) TK+
[8] = test system: TK:GFP lacZ (TK−) CV strain; experiment: microbe, parasite or virus in culture; format: cell-based; conditions: Cowpox virus, HFF, read-out: EC50 CV (TK:gpf lacZ)
WR strain of VV = experiment: microbe, parasite or virus in culture; format: cell-based; conditions: Orthopoxvirus vaccinia, HFF, 24 h, read-out: EC50 for inhibiting VV DNA synthesis
VV strain WR = test system: VV strain WR; set-up: species or system BALB/c mice; conditions: mouse, in vivo, ip, 15 mg/kg
HFF cells [9] = conditions: human
purified VV TK = purified VV TK (Vaccinia virus, UniProt P68564)
[10] = test system: vaccinia virus (Copenhagen Strain); experiment: microbe, parasite or virus in culture; format: cell-based; conditions: Orthopoxvirus vaccinia, HFF, read-out: Vaccinia (Copenhagen) EC50
[11] = test system: cowpox virus (Brighton strain); experiment: microbe, parasite or virus in culture; format: cell-based; conditions: HFF, read-out: Cowpox (Brighton) EC50
[12] = test system: Cc1cn([C@H]2C[C@H](O)[C@@H](CO)O2)c(=O)[nH]c1=O; experiment: purified protein, by the assay type
[13] = read-out: EC50 HSV-1 (DM2.1) TK−
[14] = read-out: HSV-1 DM2.1 EC50 (TK−)

Nc1nc2c(ncn2COCCO)c(=O)[nH]1 [ACV, acyclovir]
EC50 (HSV-1 strain F; read-out: EC50 HSV-1 (F) TK+): 0.3 mg/L (≈ 1.33 µM)
EC50 (HSV-1 strain F; read-out: HSV-1 F EC50 (TK+)): 0.35 ± 0.2 mg/L (≈ 1.55 µM)
EC50 (HSV-1 TK− strain DM2.1; [13]): > 100 mg/L
EC50 (HSV-1 TK− strain DM2.1; [14]): > 100 mg/L
EC50 [1]: > 30 mg/L
EC50 [2]: > 30 mg/L
Mortality % (HSV-1 strain E377): 0%
Mortality No. dead/total no. (HSV-1 strain E377): 0/15
CC50 (in vitro): > 100 mg/L

Nc1ncnc2c1ncn2[C@@H]1O[C@H](CO)[C@@H](O)[C@@H]1O [AraA, vidarabine]
EC50 (HSV-1 strain F; read-out: HSV-1 F EC50 (TK+)): 6.4 ± 3.4 mg/L (≈ 23.9 µM)
EC50 (HSV-1 TK− strain DM2.1; [14]): 4.9 mg/L (≈ 18.3 µM)
EC50 [1]: 0.91 ± 0.005 mg/L (≈ 3.41 µM)
EC50 [2]: 0.78 ± 0.2 mg/L (≈ 2.92 µM)
CC50 (in vitro): > 100 mg/L

O=c1[nH]c(=O)n([C@@H]2O[C@H](CO)[C@@H](O)[C@@H]2O)cc1/C=C/Br [BVAU, sorivudine]
EC50 (HSV-1 strain F; read-out: HSV-1 F EC50 (TK+)): 0.05 ± 0.02 mg/L (≈ 0.143 µM)
EC50 (HSV-1 TK− strain DM2.1; [14]): > 100 mg/L
EC50 [1]: > 30 mg/L
EC50 [2]: > 30 mg/L
CC50 (in vitro): > 100 mg/L

O=c1[nH]c(=O)n([C@H]2C[C@H](O)[C@@H](CO)O2)cc1/C=C/Br [BVDU, brivudin]
EC50 (HSV-1 strain F; read-out: HSV-1 F EC50 (TK+)): 0.09 mg/L (≈ 0.27 µM)
EC50 (HSV-1 TK− strain DM2.1; [14]): 100 mg/L (≈ 300 µM)
EC50 [1]: > 30 mg/L
EC50 [2]: > 30 mg/L
CC50 (in vitro): > 100 mg/L

O=c1[nH]c(=O)n([C@H]2C[C@H](O)[C@@H](CO)O2)cc1Br [BrdU, 5-bromodeoxyuridine]
EC50 (HSV-1 strain F; read-out: HSV-1 F EC50 (TK+)): 1.6 ± 0.2 mg/L (≈ 5.21 µM)
EC50 (HSV-1 TK− strain DM2.1; [14]): 39 ± 6.3 mg/L (≈ 127 µM)
EC50 [1]: 0.37 mg/L (≈ 1.2 µM)
EC50 [2]: 19 mg/L (≈ 61.9 µM)
CC50 (in vitro): > 100 mg/L

Nc1ccn(C[C@@H](CO)OCP(=O)(O)O)c(=O)n1 [CDV, cidofovir]
VV (Copenhagen) EC50 [3]: 3.3 ± 0.3 mg/L
EC50 ([3]; Orthopoxvirus vaccinia, HFF, read-out: VV (Copenhagen) EC50): 3 mg/L (≈ 10.7 µM)
EC50 [4]: 4.4 ± 0.6 mg/L (≈ 15.8 µM)
IC50 (HFF cells [5]): 20 ± 7 mg/L (≈ 71.6 µM)
Mortality Number (vaccinia IHD strain): 0/15
Mortality Percent (vaccinia IHD strain): 0%
Mortality % (vaccinia IHD strain; ip, 15 mg/kg): 0%
Mortality No. dead/total no. (vaccinia IHD strain; ip, 15 mg/kg): 0/15
Mortality Number (cowpox Brighton Strain [6]): 0/15
Mortality Percent (cowpox Brighton Strain [6]): 0%
Mortality % (cowpox Brighton Strain [6]; ip, 15 mg/kg): 0%
Mortality No. dead/total no. (cowpox Brighton Strain [6]; ip, 15 mg/kg): 0/15
Number of Survivors (cowpox Brighton Strain [7]): 10/10
Number of Survivors (vaccinia WR strain): 10/10
MDD (mean day of death of mice that died prior to day 21) (vaccinia (WR strain)): 8.0 days
Mean Lung Virus Titer (vaccinia (WR strain)): 7.0 ± 0.2
Survivors/Total (vaccinia (WR strain)): 9/10***
MDD, mean day of death (vaccinia (HID strain)): >21*** day
Mean Lung Virus Titer (vaccinia (HID strain)): 4.7 ± 0.6
Survivors/Total (vaccinia (HID strain)): 10/10***
EC50 (HSV-1 strain F; read-out: EC50 HSV-1 (F) TK+): 1.5 ± 1.1 mg/L (≈ 5.37 µM)
EC50 (HSV-1 strain F; read-out: HSV-1 F EC50 (TK+)): 1.5 ± 1.1 mg/L (≈ 5.37 µM)
EC50 (HSV-1 TK− strain DM2.1; [13]): 1.5 ± 1.4 mg/L (≈ 5.37 µM)
EC50 (HSV-1 TK− strain DM2.1; [14]): 1.5 ± 1.4 mg/L (≈ 5.37 µM)
EC50 [1]: 16.1 ± 0.3 mg/L (≈ 57.7 µM)
EC50 [2]: 3.3 ± 2.3 mg/L (≈ 11.8 µM)
EC50 (ΔcrmA (TK+) CV strain): 3.5 ± 3.3 mg/L (≈ 12.5 µM)
EC50 [8]: 4.2 ± 3.9 mg/L (≈ 15 µM)
EC50 (WR strain of VV): 3 mg/L (≈ 10.7 µM)
Mortality % (VV strain WR): 0%
Mortality No. dead/total no. (VV strain WR): 0/15
CC50 (HFF cells [9]): >100 ± 0 mg/L
Toxicity CC50 (HFF cells [9]): >100 ± 0 mg/L
Vmax (purified VV TK): <0.025 µM/min/mg
CC50 (in vitro): > 100 mg/L

Nc1nc(=O)n([C@@H]2O[C@H](CO)[C@@H](O)[C@@H]2F)cc1I [FIAC, fiacitabine]
EC50 (HSV-1 strain F; read-out: HSV-1 F EC50 (TK+)): 0.06 ± 0.02 mg/L (≈ 0.162 µM)
EC50 (HSV-1 TK− strain DM2.1; [14]): 8 ± 1.3 mg/L (≈ 21.6 µM)
EC50 [1]: 18 ± 0.25 mg/L (≈ 48.5 µM)
EC50 [2]: 9.2 ± 3.7 mg/L (≈ 24.8 µM)
Vmax (purified VV TK): <0.14 µM/min/mg
CC50 (in vitro): > 100 mg/L

O=c1[nH]c(=O)n([C@@H]2O[C@H](CO)[C@@H](O)[C@@H]2F)cc1I [FIAU, fialuridine]
EC50 (HSV-1 strain F; read-out: HSV-1 F EC50 (TK+)): 0.05 ± 0.03 mg/L (≈ 0.134 µM)
EC50 (HSV-1 TK− strain DM2.1; [14]): 3.9 ± 3.3 mg/L (≈ 10.5 µM)
EC50 [1]: 14 ± 7 mg/L (≈ 37.6 µM)
EC50 [2]: 19 ± 6.7 mg/L (≈ 51.1 µM)
CC50 (in vitro): > 100 mg/L

O=c1[nH]c(=O)n([C@H]2C[C@H](O)[C@@H](CO)O2)cc1F [FdU, 5-fluorodeoxyuridine]
EC50 (HSV-1 strain F; read-out: HSV-1 F EC50 (TK+)): 2.5 ± 1.7 mg/L (≈ 10.2 µM)
EC50 (HSV-1 TK− strain DM2.1; [14]): 4.5 ± 3.3 mg/L (≈ 18.3 µM)
EC50 [1]: 0.37 mg/L (≈ 1.5 µM)
EC50 [2]: 0.37 mg/L (≈ 1.5 µM)
CC50 (in vitro): 60 ± 0.7 mg/L (≈ 244 µM)

O=c1[nH]c(=O)n([C@H]2C[C@H](O)[C@@H](CO)O2)cc1I [IDU, idoxuridine]
EC50 (HSV-1 strain F; read-out: EC50 HSV-1 (F) TK+): 2.1 ± 0.1 mg/L (≈ 5.93 µM)
EC50 (HSV-1 strain F; read-out: HSV-1 F EC50 (TK+)): 2.1 ± 0.1 mg/L (≈ 5.93 µM)
EC50 (HSV-1 TK− strain DM2.1; [13]): 54 ± 8.1 mg/L (≈ 152 µM)
EC50 (HSV-1 TK− strain DM2.1; [14]): 54 ± 8.1 mg/L (≈ 152 µM)
EC50 [1]: 2.2 ± 0.87 mg/L (≈ 6.21 µM)
EC50 [2]: 16 ± 9.3 mg/L (≈ 45.2 µM)
EC50 (ΔcrmA (TK+) CV strain): 0.4 ± 0.18 mg/L (≈ 1.13 µM)
EC50 [8]: 22 ± 9.3 mg/L (≈ 62.1 µM)
CC50 (in vitro): > 100 mg/L

O=c1[nH]c(=O)n([C@H]2C[C@H](O)[C@@]3(CO)CC23)cc1Br (stereo partly drawn) [N-MCBrU]
EC50 [10]: 0.6 mg/L (≈ 1.89 µM)
EC50 [11]: 11.5 mg/L (≈ 36.3 µM)
CC50 (in vitro): > 100 mg/L

O=c1[nH]c(=O)n([C@H]2C[C@H](O)[C@@H](CO)O2)cc1C(F)(F)F [TFT, trifluridine]
EC50 (HSV-1 strain F; read-out: HSV-1 F EC50 (TK+)): 1 ± 0.2 mg/L (≈ 3.38 µM)
EC50 (HSV-1 TK− strain DM2.1; [14]): 1.1 ± 0.3 mg/L (≈ 3.71 µM)
EC50 [1]: 0.42 ± 0.33 mg/L (≈ 1.42 µM)
EC50 [2]: 0.72 ± 0.28 mg/L (≈ 2.43 µM)
CC50 (in vitro): > 100 mg/L

purified VV TK (Vaccinia virus Copenhagen)
Km [12]: 49 ± 7.6 µM
Vmax [12]: 289 µM/min/mg
